Here are results for 13 compounds from US12643910B2, “Substituted pyrazolo[3,4-b]pyridines as ectonucleotide pyrophosphatase/phosphodiesterase 1 (ENPP1) modulators” (SANFORD BURNHAM PREBYS MEDICAL DISCOVERY INSTITUTE, priority 2019, dated 2026).

Some results are limits rather than exact numbers.

The target in one assay is T1, human ENPP1 (Homo sapiens, UniProt P22413).
T1 construct: made in house
T1 sequence (P22413 1-925): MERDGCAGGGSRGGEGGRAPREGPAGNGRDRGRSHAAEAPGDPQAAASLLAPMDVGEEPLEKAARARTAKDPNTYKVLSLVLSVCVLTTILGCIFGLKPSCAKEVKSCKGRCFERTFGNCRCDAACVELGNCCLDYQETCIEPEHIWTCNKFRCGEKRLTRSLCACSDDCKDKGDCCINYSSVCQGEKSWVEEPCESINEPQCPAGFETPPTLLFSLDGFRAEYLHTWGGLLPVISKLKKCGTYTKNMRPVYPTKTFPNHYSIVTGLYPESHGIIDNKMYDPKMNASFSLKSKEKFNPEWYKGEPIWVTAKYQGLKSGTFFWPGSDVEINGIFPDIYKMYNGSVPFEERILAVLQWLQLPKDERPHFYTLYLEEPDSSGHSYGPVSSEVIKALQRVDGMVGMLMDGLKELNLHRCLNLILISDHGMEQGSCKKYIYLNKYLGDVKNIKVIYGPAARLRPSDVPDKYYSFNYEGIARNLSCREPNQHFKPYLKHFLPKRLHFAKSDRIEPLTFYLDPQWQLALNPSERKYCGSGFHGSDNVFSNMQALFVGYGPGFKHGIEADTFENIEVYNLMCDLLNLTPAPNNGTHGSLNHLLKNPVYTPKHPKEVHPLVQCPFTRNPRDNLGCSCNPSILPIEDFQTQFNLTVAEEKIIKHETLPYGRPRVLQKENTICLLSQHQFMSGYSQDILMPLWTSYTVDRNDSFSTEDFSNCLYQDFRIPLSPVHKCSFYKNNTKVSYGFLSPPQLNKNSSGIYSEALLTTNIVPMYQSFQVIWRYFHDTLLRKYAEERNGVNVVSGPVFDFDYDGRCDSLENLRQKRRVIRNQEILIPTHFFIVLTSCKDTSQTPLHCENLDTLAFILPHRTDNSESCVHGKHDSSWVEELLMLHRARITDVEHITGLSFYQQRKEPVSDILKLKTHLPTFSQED
Description: ENPP1 assay with ATP substrate (Transcreener AMP2/GMP2 TR-FRET). The settings on record: 1 hour at room temperature. Type of assay: biochemical. The method in brief:
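Reaction ran 1 h at room temperature in pH 7.5 Tris with MgCl2, TCEP, Tween 20 and 1% DMSO. ATP was added as a 300 nM stock and enzyme as an 8.5 μM stock. After EDTA stop, AMP was read by TR-FRET tracer displacement. Percent inhibition used enzyme/no-enzyme controls; IC50 was fitted with a variable slope.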
For orientation: TR-FRET usually uses a lanthanide donor and a delayed reading to cut background.

The target in a further assay is T2, ENPP3 (Homo sapiens, UniProt O14638).
T2 sequence (O14638 1-875): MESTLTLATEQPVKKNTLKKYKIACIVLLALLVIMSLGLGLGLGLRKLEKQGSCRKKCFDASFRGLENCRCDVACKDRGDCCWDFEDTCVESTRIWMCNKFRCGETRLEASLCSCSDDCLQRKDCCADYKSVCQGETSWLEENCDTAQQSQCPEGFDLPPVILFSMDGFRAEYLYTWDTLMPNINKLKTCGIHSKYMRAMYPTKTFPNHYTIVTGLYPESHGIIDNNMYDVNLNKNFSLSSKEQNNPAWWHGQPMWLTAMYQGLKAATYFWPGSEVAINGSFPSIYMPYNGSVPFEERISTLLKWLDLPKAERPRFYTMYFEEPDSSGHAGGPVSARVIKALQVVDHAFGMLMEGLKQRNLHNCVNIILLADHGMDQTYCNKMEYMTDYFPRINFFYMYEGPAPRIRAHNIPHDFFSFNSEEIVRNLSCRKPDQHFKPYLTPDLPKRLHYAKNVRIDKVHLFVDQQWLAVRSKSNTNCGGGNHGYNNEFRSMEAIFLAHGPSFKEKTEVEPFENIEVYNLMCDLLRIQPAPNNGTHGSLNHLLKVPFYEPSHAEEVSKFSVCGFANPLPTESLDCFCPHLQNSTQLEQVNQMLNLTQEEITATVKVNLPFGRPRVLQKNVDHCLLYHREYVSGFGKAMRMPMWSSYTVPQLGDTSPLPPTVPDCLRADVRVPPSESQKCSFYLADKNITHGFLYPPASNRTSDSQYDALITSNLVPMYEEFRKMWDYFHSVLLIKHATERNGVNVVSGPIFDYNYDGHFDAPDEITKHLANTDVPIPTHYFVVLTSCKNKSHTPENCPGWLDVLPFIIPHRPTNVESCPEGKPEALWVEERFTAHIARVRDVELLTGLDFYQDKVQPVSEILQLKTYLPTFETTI
Nature of the assay: ENPP3 Km ATP assay. In kind it is biochemical. The following applies: ATP at Km.

Broadly, the IC50 is the concentration at which inhibition is half-maximal. Consider `Cn1ncc2c(NCc3ccc(S(N)(=O)=O)cc3)nc(N3CCOCC3)nc21` [Example 2.29, 4-(((1-Methyl-6-morpholino-1H-pyrazolo[3,4-d]pyrimidin-4-yl)amino)methyl)-benzenesulfonamide], for which the IC50 against human ENPP1 was more than 20 µM; at ENPP3 it was 0.1 to 1 µM.

As to `CCN(C)c1nc(NCc2ccc(S(N)(=O)=O)cc2)c2cnn(C)c2n1` [Example 2.31, 4-(((6-(Ethyl(methyl)amino)-1-methyl-1H-pyrazolo[3,4-d]pyrimidin-4-yl)amino)methyl)-benzenesulfonamide], the concentration for half-maximal inhibition (IC50) was in the range of 1 to 20 µM against human ENPP1 and 0.1 to 1 µM against ENPP3.

Consider `Cn1ncc2c(NCc3ccc(S(N)(=O)=O)c(C(F)(F)F)c3)ncnc21` [Example 2.41, 4-(((1-Methyl-1H-pyrazolo[3,4-d]pyrimidin-4-yl)amino)methyl)-2-(trifluoromethyl)-benzenesulfonamide], for which the 50% inhibitory concentration (IC50) at human ENPP1 is 0.1 to 1 µM; on ENPP3, 1 to 20 µM.

For the compound `Cc1csc2c(N3CCC(NC(=O)COc4ccc(F)cc4)CC3)ncnc12` [Example 3.22, 2-(4-Fluorophenoxy)-N-(1-(7-methylthieno[3,2-d]pyrimidin-4-yl)piperidin-4-yl)acetamide], the 50% inhibitory concentration (IC50) on human ENPP1 was 1 to 20 µM; on ENPP3 it was more than 20 µM.

Take `Cc1csc2c(N3CCC(NCCCc4cccnc4)CC3)ncnc12` [Example 3.26, 1-(7-Methylthieno[3,2-d]pyrimidin-4-yl)-N-(3-(pyridin-3-yl)propyl)piperidin-4-amine]: the IC50 against human ENPP1 was 0.1 to 1 µM; against ENPP3, more than 20 µM.

Take `NS(=O)(=O)c1ccc(CNc2ncnc3scc(Br)c23)cc1` [Example 1.49, 4-((5-Bromothieno[2,3-d]pyrimidin-4-yl)aminomethyl)benzenesulfonamide]: the figures for the IC50 against human ENPP1 and at ENPP3 were 0.1 to 1 µM and less than 0.1 µM, respectively.

On to `CN(Cc1ccc(S(N)(=O)=O)cc1)c1ncnc2c1cnn2C` [Example 2.136, 4-(N-methyl-N-(1-methyl-1H-pyrazolo[3,4-d]pyrimidin-4-yl)aminomethyl)-benzenesulfonamide], for which the 50% inhibitory concentration (IC50) lay in the range of 1 to 20 µM against human ENPP1 and 0.1 to 1 µM at ENPP3.

Regarding `Cc1nc(NCc2ccc(S(N)(=O)=O)cc2)c2c(-c3ccccc3)csc2n1` [Example 1.44, 4-(((2-Methyl-5-phenylthieno[2,3-d]pyrimidin-4-yl)amino)methyl)benzenesulfonamide], the IC50 against human ENPP1 and against ENPP3 was less than 0.1 µM each time.

On to `Cn1nc(Br)c2c(NCc3ccc(S(N)(=O)=O)cc3)nc(N3CCCCC3)nc21` [Example 2.131, 4-((3-Bromo-1-methyl-6-piperidino-1H-pyrazolo[3,4-d]pyrimidin-4-yl)aminomethyl)benzenesulfonamide], for which the half-maximal inhibitory concentration (IC50) is 1 to 20 µM against human ENPP1 and less than 0.1 µM against ENPP3.

In the case of `Cn1ncc2c(NCc3ccc(S(N)(=O)=O)cc3)ccnc21` [Example 2.60, 4-(((1-Methyl-1H-pyrazolo[3,4-b]pyridin-4-yl)amino)methyl)benzenesulfonamide], the IC50 against human ENPP1 was less than 0.1 µM; at ENPP3, 0.1 to 1 µM.

Take `CNc1nc(NCc2ccc(S(N)(=O)=O)cc2)c2c(-c3ccccc3)csc2n1` [Example 1.42, 4-(((2-(Methylamino)-5-phenylthieno[2,3-d]pyrimidin-4-yl)amino)methyl)-benzenesulfonamide]: the concentration for half-maximal inhibition (IC50) against human ENPP1 and against ENPP3 was less than 0.1 µM each time.

With `c1ccc(-c2csc3nc(-c4ccccn4)nc(NCc4cccs4)c23)cc1` [Example 1.33, (5-Phenyl-2-pyridin-2-yl-thieno[2,3-d]pyrimidin-4-yl)-thiophen-2-ylmethyl-amine], the half-inhibitory concentration (IC50) at human ENPP1 lay in the range of 0.1 to 1 µM; against ENPP3 it was 1 to 20 µM.

Consider `Cc1csc2c(N3CCC(NC(=O)/C=C/c4ccncc4Cl)CC3)ncnc12` [Example 3.11, (E)-3-(3-Chloropyridin-4-yl)-N-(1-(7-methylthieno[3,2-d]pyrimidin-4-yl)piperidin-4-yl)acrylamide], for which the IC50 was 1 to 20 µM against human ENPP1 and more than 20 µM on ENPP3.
